Assay results reported in patent US20250381243A1, “HETEROCYCLES AND USES THEREOF” (Kumquat Biosciences Inc., priority 2022, published 2025).
pIC50: −log10 of the molar value.

tested on: A549 cells; assay: Cell proliferation assay (CellTiter-Glo), cells with K-Ras G12S mutation; type: cell-based; details: Homo sapiens, ≤500 nM, read-out: Inhibition of A549 Cells (IC50)
Method in brief: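 A549 (K-Ras G12S) cells in RPMI-1640 with 10% heat-inactivated FBS, plated in standard or ultra-low-attachment 384-well format, treated next day with a dilution series (e.g., 10-point, 3-fold). Viability read by CellTiter-Glo luminescence about 6 days later; IC50 from four-parameter fit.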

pIC50, ≥ 6.30:
C[C@H]1CC[C@]2(CN(C(=O)n3cnc(F)n3)[C@@H]2C2(C)CC2)CN1c1nc(OC[C@@]23CCCN2C[C@H](F)C3)nc2c(F)c(-c3ccc(F)c4sc(N)c(C#N)c34)c(Cl)cc12 [Compound 185, 2-amino-4-(6-chloro-8-fluoro-4-((1R,4R,7S)-2-(3-fluoro-1H-1,2,4-triazole-1-carbonyl)-7-methyl-1-(1-methylcyclopropyl)-2,6-diazaspiro[3.5]nonan-6-yl)-2-(((2R,7aS)-2-fluorotetrahydro-1H-pyrrolizin-7a(5H)-yl)methoxy)quinazolin-7-yl)-7-fluorobenzo[b]thiophene-3-carbonitrile]
CN(C[C@@H]1CN(C(=O)n2cnc(F)n2)[C@@H]1C1(C(F)F)CC1)c1nc(OC[C@@]23CCCN2C[C@H](F)C3)nc2c(F)c(-c3ccc(F)c4sc(N)c(C#N)c34)c(Cl)cc12 [Compound 186, 2-amino-4-(6-chloro-4-((((2S,3R)-2-(1-(difluoromethyl)cyclopropyl)-1-(3-fluoro-1H-1,2,4-triazole-1-carbonyl)azetidin-3-yl)methyl)(methyl)amino)-8-fluoro-2-(((2R,7aS)-2-fluorotetrahydro-1H-pyrrolizin-7a(5H)-yl)methoxy)quinazolin-7-yl)-7-fluorobenzo[b]thiophene-3-carbonitrile]
CC(C)[C@H]1N(C(=O)n2cnc(Cl)n2)C[C@]12CCCN(c1nc(OC[C@@]34CCCN3C[C@H](F)C4)nc3c(F)c(-c4ccc(F)c5sc(N)c(C#N)c45)c(Cl)cc13)C2 [Compound 190, 2-amino-4-(6-chloro-4-((1R,4R)-2-(3-chloro-1H-1,2,4-triazole-1-carbonyl)-1-isopropyl-2,6-diazaspiro[3.5]nonan-6-yl)-8-fluoro-2-(((2R,7aS)-2-fluorotetrahydro-1H-pyrrolizin-7a(5H)-yl)methoxy)quinazolin-7-yl)-7-fluorobenzo[b]thiophene-3-carbonitrile]
CC(C)[C@H]1N(C(=O)n2cnc(Cl)n2)C[C@]12CC[C@H](C)N(c1nc(OC[C@@]34CCCN3C[C@H](F)C4)nc3c(F)c(-c4ccc(F)c5sc(N)c(C#N)c45)c(Cl)cc13)C2 [Compound 192, 2-amino-4-(6-chloro-4-((1R,4R,7S)-2-(3-chloro-1H-1,2,4-triazole-1-carbonyl)-1-isopropyl-7-methyl-2,6-diazaspiro[3.5]nonan-6-yl)-8-fluoro-2-(((2R,7aS)-2-fluorotetrahydro-1H-pyrrolizin-7a(5H)-yl)methoxy)quinazolin-7-yl)-7-fluorobenzo[b]thiophene-3-carbonitrile]
C[C@H]1CC[C@]2(CN(C(=O)n3cnc(F)n3)[C@@H]2C2CCC2)CN1c1nc(OC[C@@]23CCCN2C[C@H](F)C3)nc2c(F)c(-c3ccc(F)c4sc(N)c(C#N)c34)c(Cl)cc12 [Compound 199, 2-amino-4-(6-chloro-4-((1R,4R,7S)-1-cyclobutyl-2-(3-fluoro-1H-1,2,4-triazole-1-carbonyl)-7-methyl-2,6-diazaspiro[3.5]nonan-6-yl)-8-fluoro-2-(((2R,7aS)-2-fluorotetrahydro-1H-pyrrolizin-7a(5H)-yl)methoxy)quinazolin-7-yl)-7-fluorobenzo[b]thiophene-3-carbonitrile]
CC(C)[C@H]1N(C(=O)n2cnc(F)n2)C[C@@]12CN(c1nc(OC[C@@]34CCCN3C[C@H](F)C4)nc3c(F)c(-c4ccc(F)c5sc(N)c(C#N)c45)c(Cl)cc13)CCO2 [Compound 204, 2-amino-4-(6-chloro-8-fluoro-4-((1R,4S)-2-(3-fluoro-1H-1,2,4-triazole-1-carbonyl)-1-isopropyl-5-oxa-2,8-diazaspiro[3.5]nonan-8-yl)-2-(((2R,7aS)-2-fluorotetrahydro-1H-pyrrolizin-7a(5H)-yl)methoxy)quinazolin-7-yl)-7-fluorobenzo[b]thiophene-3-carbonitrile]
CC1CN(c2nc(OC[C@@]34CCCN3C[C@H](F)C4)nc3c(F)c(-c4ccc(F)c5sc(N)c(C#N)c45)c(Cl)cc23)CC1N(C)C(=O)n1cncn1 (stereo partly drawn) [Compound 206, N-(1-(7-(2-amino-3-cyano-7-fluorobenzo[b]thiophen-4-yl)-6-chloro-8-fluoro-2-(((2R,7aS)-2-fluorotetrahydro-1H-pyrrolizin-7a(5H)-yl)methoxy)quinazolin-4-yl)-4-methylpyrrolidin-3-yl)-N-methyl-1H-1,2,4 triazole-1-carboxamide]
CC(C)[C@@H]1[C@H](CN(C)c2nc(OC[C@@]34CCCN3C[C@H](F)C4)nc3c(F)c(-c4ccc(F)c5sc(N)c(C#N)c45)c(Cl)cc23)CN1C(=O)n1cnc(Cl)n1 [Compound 208, 2-amino-4-(6-chloro-4-((((2R,3R)-1-(3-chloro-1H-1,2,4-triazole-1-carbonyl)-2-isopropylazetidin-3-yl)methyl)(methyl)amino)-8-fluoro-2-(((2R,7aS)-2-fluorotetrahydro-1H-pyrrolizin-7a(5H)-yl)methoxy)quinazolin-7-yl)-7-fluorobenzo[b]thiophene-3-carbonitrile]
CCN(C(=O)n1cncn1)C1CCCN(c2nc(OC[C@@]34CCCN3C[C@H](F)C4)nc3c(F)c(-c4ccc(F)c5sc(N)c(C#N)c45)c(Cl)cc23)C1 (stereo partly drawn) [Compound 209, N-(1-(7-(2-amino-3-cyano-7-fluorobenzo[b]thiophen-4-yl)-6-chloro-8-fluoro-2-(((2R,7aS)-2-fluorotetrahydro-1H-pyrrolizin-7a(5H)-yl)methoxy)quinazolin-4-yl)piperidin-3-yl)-N-ethyl-1H-1,2,4-triazole-1-carboxamide]
CC(C)[C@H]1N(C(=O)n2cnc(Cl)n2)C[C@@]1(C)CN(C)c1nc(OC[C@@]23CCCN2C[C@H](F)C3)nc2c(F)c(-c3ccc(F)c4sc(N)c(C#N)c34)c(Cl)cc12 [Compound 210, 2-amino-4-(6-chloro-4-((((2R,3R)-1-(3-chloro-1H-1,2,4-triazole-1-carbonyl)-2-isopropyl-3-methylazetidin-3-yl)methyl)(methyl)amino)-8-fluoro-2-(((2R,7aS)-2-fluorotetrahydro-1H-pyrrolizin-7a(5H)-yl)methoxy)quinazolin-7-yl)-7-fluorobenzo[b]thiophene-3-carbonitrile]
CC(C)[C@H]1N(C(=O)n2cnc(F)n2)C[C@]12CC[C@H](C)N(c1nc(OC[C@@]34CCCN3C[C@H](F)C4)nc3c(F)c(-c4ccc(F)c5sc(N)c(C#N)c45)c(Cl)cc13)C2 [Compound 213, 2-amino-4-(6-chloro-8-fluoro-4-((1R,4R,7S)-2-(3-fluoro-1H-1,2,4-triazole-1-carbonyl)-1-isopropyl-7-methyl-2,6-diazaspiro[3.5]nonan-6-yl)-2-(((2R,7aS)-2-fluorotetrahydro-1H-pyrrolizin-7a(5H)-yl)methoxy)quinazolin-7-yl)-7-fluorobenzo[b]thiophene-3-carbonitrile]
CC1([C@H]2N(C(=O)n3cnc(F)n3)C[C@]23CCCN(c2nc(OC[C@@]45CCCN4C[C@H](F)C5)nc4c(F)c(-c5ccc(F)c6sc(N)c(C#N)c56)c(Cl)cc24)C3)CC1 [Compound 216, 2-amino-4-(6-chloro-8-fluoro-4-((1R,4R)-2-(3-fluoro-1H-1,2,4-triazole-1-carbonyl)-1-(1-methylcyclopropyl)-2,6-diazaspiro[3.5]nonan-6-yl)-2-(((2R,7aS)-2-fluorotetrahydro-1H-pyrrolizin-7a(5H)-yl)methoxy)quinazolin-7-yl)-7-fluorobenzo[b]thiophene-3-carbonitrile]
COCC1([C@H]2N(C(=O)n3cnc(F)n3)C[C@]23CCCCN(c2nc(OC[C@@]45CCCN4C[C@H](F)C5)nc4c(F)c(-c5ccc(F)c6sc(N)c(C#N)c56)c(Cl)cc24)C3)CC1 [Compound 219, 2-amino-4-(6-chloro-8-fluoro-4-((1S,4R)-2-(3-fluoro-1H-1,2,4-triazole-1-carbonyl)-1-(1-(methoxymethyl)cyclopropyl)-2,6-diazaspiro[3.6]decan-6-yl)-2-(((2R,7aS)-2-fluorotetrahydro-1H-pyrrolizin-7a(5H)-yl)methoxy)quinazolin-7-yl)-7-fluorobenzo[b]thiophene-3-carbonitrile]
C[C@H]1CC[C@]2(CN(C(=O)n3cnc(F)n3)[C@@H]2C2(C)CC2)CN1c1nc(OC[C@]23CCCN2CC(=C(F)F)C3)nc2c(F)c(-c3ccc(F)c4sc(N)c(C#N)c34)c(Cl)cc12 [Compound 223, 2-amino-4-(6-chloro-2-(((R)-2-(difluoromethylene)tetrahydro-1H-pyrrolizin-7a(5H)-yl)methoxy)-8-fluoro-4-((1R,4R,7S)-2-(3-fluoro-1H-1,2,4-triazole-1-carbonyl)-7-methyl-1-(1-methylcyclopropyl)-2,6-diazaspiro[3.5]nonan-6-yl)quinazolin-7-yl)-7-fluorobenzo[b]thiophene-3-carbonitrile]
CC(C)[C@H]1N(C(=O)n2cnc(O)n2)C[C@]12CCCCN(c1nc(OC[C@@]34CCCN3C[C@H](F)C4)nc3c(F)c(-c4ccc(F)c5sc(N)c(C#N)c45)c(Cl)cc13)C2 [Compound 224, 2-amino-4-(6-chloro-8-fluoro-2-(((2R,7aS)-2-fluorotetrahydro-1H-pyrrolizin-7a(5H)-yl)methoxy)-4-((1R,4R)-2-(3-hydroxy-1H-1,2,4-triazole-1-carbonyl)-1-isopropyl-2,6-diazaspiro[3.6]decan-6-yl)quinazolin-7-yl)-7-fluorobenzo[b]thiophene-3-carbonitrile]
CC(C)[C@H]1N(C(=O)n2cnc(C(F)F)n2)C[C@]12CCCCN(c1nc(OC[C@@]34CCCN3C[C@H](F)C4)nc3c(F)c(-c4ccc(F)c5sc(N)c(C#N)c45)c(Cl)cc13)C2 [Compound 226, 2-amino-4-(6-chloro-4-((1R,4R)-2-(3-(difluoromethyl)-1H-1,2,4-triazole-1-carbonyl)-1-isopropyl-2,6-diazaspiro[3.6]decan-6-yl)-8-fluoro-2-(((2R,7aS)-2-fluorotetrahydro-1H-pyrrolizin-7a(5H)-yl)methoxy)quinazolin-7-yl)-7-fluorobenzo[b]thiophene-3-carbonitrile]
